Results published in PubChem BioAssay (NCI).
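Cultured in 96-well plates, cells were exposed to test compound for 48 hours across five concentrations. Here, GI50 denotes the concentration required for 50% inhibition of growth. TGI is the concentration that stops growth completely.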

Experiments:
Experiment in all cases: growth of human tumour cells (NCI), 48 h
[1] = test system: 786-0 renal
[2] = test system: HCT-15 colon
[3] = test system: IGROV1 ovarian
[4] = test system: NCI/ADR-RES ovarian
[5] = test system: SF-268 CNS
[6] = test system: SF-539 CNS
[7] = test system: SNB-19 CNS
[8] = test system: T-47D breast
[9] = test system: MDA-N
[10] = test system: NCI-H460 lung

SMILES	TGI [1] [µM]	TGI [2] [µM]	TGI [3] [µM]	TGI [4] [µM]	TGI [5] [µM]	TGI [6] [µM]	TGI [7] [µM]	TGI [8] [µM]	TGI [9] [µM]	TGI [10] [µM]	GI50 [2] [µM]	GI50 [3] [µM]	GI50 [10] [µM]	GI50 [4] [µM]	GI50 [5] [µM]	GI50 [6] [µM]	GI50 [7] [µM]	GI50 [8] [µM]
CC1(C)CC(=O)C2(CC(CSc3ccccc3)C(CS(=O)(=O)c3ccccc3)C2)C(=O)C1 (centres undefined)	> 100	> 100	> 100	> 100	> 100	> 100	> 100	> 100	–	–	–	–	–	–	–	–	–	–
CCCSc1ccc2[nH]c(N3C(=O)/C(=C/c4ccccc4)N=C3c3ccccc3)cc2c1	> 50	> 50	> 50	> 50	> 50	> 50	> 50	> 50	20.1	–	–	–	–	–	–	–	–	–
O=c1c(-c2ccccc2)c(SCCO)n(-c2ccccc2)c(=S)n1-c1ccccc1	> 100	> 100	> 100	> 100	> 100	–	> 100	–	> 100	> 100	–	–	–	–	–	–	–	–
Cc1cc(OC(=O)NCn2cc(-c3ccccc3)nn2)ccc1Cl	> 100	> 100	> 100	> 100	> 100	> 100	> 100	–	–	> 100	–	–	–	–	–	–	–	–
O=C1NC(=O)C(C(CC(=O)c2ccc(Cl)cc2)c2ccc(Cl)cc2)C(=O)N1 (centres undefined)	> 100	> 100	> 100	–	> 100	> 100	> 100	–	> 100	> 100	–	–	–	–	–	–	–	–
COc1ccc(OC)c(SC(CC(=O)c2ccccc2)c2ccccc2)c1 (centres undefined)	29.2	35.4	23.1	32.4	40.2	15.7	27.8	35.8	–	> 100	–	–	–	–	–	–	–	–
C=CCC1C(O[Si](C)(C)C(C)(C)C)C(CO[Si](C)(C)C(C)(C)C)OC1n1ccc(=O)[nH]c1=O (centres undefined)	2.44	2.64	3.02	3.48	–	3.03	3.06	4.37	2.89	2.93	–	–	–	–	–	–	–	–
C=CCP(=O)(CC=C)C(Cl)Cl	–	> 100	> 100	> 100	–	–	> 100	> 100	> 100	> 100	–	–	–	–	–	–	–	–
COc1ccc2[nH]c(O)c(/C=c3/cc4c(c(-c5ccc(F)c(OC)c5)n3)=Nc3ccccc3-4)c2c1	–	5.63	17.6	11.2	18	3.37	11.6	3.78	–	3.41	2.36	4.41	1.78	2.56	3.68	1.86	2.85	1.85
COc1cccc(N[C@@H]2c3cc4c(cc3C(c3cc(OC)c(O)c(OC)c3)[C@H]3C(=O)OCC32)OCO4)c1 (some centres undefined)	–	2.39	33.8	> 70.2	12.8	2.52	27.7	–	–	1.6	–	–	–	–	–	–	–	–
CCOP(=O)(O)CN1CCNCCN(CP(=O)(O)OCC)CCNCC1	> 100	> 100	> 100	> 100	–	> 100	> 100	> 100	> 100	> 100	–	–	–	–	–	–	–	–
COc1cc(C2C(Cl)C(=O)N2c2c(C)n(C)n(-c3ccccc3)c2=O)ccc1O (centres undefined)	31.6	–	29.1	75.8	75.5	39.4	–	> 100	32.6	59.7	–	–	–	–	–	–	–	–
C=C(C)[C@H]1C2=CC(C)=C(O2)[C@@H](O[C@@H]2c3oc(cc3C)[C@H](C(=C)C)[C@H]3C=C(CC[C@H]2C(=C)C)C(=O)O3)[C@H](C(=C)C)CCC2=C[C@H]1OC2=O	> 100	> 100	> 100	> 100	> 100	–	> 100	> 100	> 100	> 100	–	–	–	–	–	–	–	–
O=c1oc(C(C(F)(F)F)C(F)(F)F)nc2ccccc12	> 100	> 100	> 100	> 100	–	> 100	> 100	–	–	> 100	–	–	–	–	–	–	–	–
CCOC(=O)c1cc(C)nc2c1c(=O)n(-c1ccccc1)c(=O)n2CCCCN1CCN(c2ccccc2)CC1	> 100	> 100	> 100	> 100	> 100	–	–	> 100	–	–	–	–	–	–	–	–	–	–
CC(C)(C)OC(=O)NCC(CNC(=O)OC(C)(C)C)c1nc(C(N)=O)cs1	> 100	> 100	> 100	> 100	–	> 100	> 100	–	> 100	> 100	–	–	–	–	–	–	–	–
c1ccc(/C(=N/Nc2ccncn2)c2ccccn2)cc1	> 100	> 100	53.6	49	50.9	> 100	> 100	–	> 100	> 100	–	–	–	–	–	–	–	–
C=CC[n+]1c2ccccc2n2cc([N+](=O)[O-])ccc21	> 100	> 100	51.5	> 100	–	> 100	> 100	> 100	50.7	–	–	–	–	–	–	–	–	–
O=C(Nc1ccccc1C(=O)NCc1ccccc1)/C(=C/c1ccccc1)NC(=O)c1ccccc1	> 100	> 100	> 100	> 100	> 100	> 100	> 100	> 100	–	–	–	–	–	–	–	–	–	–
Cc1nc(N)c(N2CCN(CN)CC2)c(=O)[nH]1	> 100	> 100	–	> 100	> 100	> 100	> 100	> 100	> 100	> 100	–	–	–	–	–	–	–	–
CC1(C)CC2(CC(C)(C)N1O)NC(=O)OC2=O	–	> 100	> 100	> 100	> 100	> 100	> 100	–	–	> 31.6	–	–	–	–	–	–	–	–
CCN=C1C=CC(=C(c2ccc(N(CC)CC)cc2)c2ccc(N(CC)CC)cc2)c2ccccc21	–	1.21	–	2.11	–	–	1.47	–	–	–	0.299	–	–	0.35	–	–	0.0504	–
Cc1nnc2n1N=C(c1ccc(Cl)cc1Cl)/C(=C/c1ccc(-c3ccc([N+](=O)[O-])cc3Cl)o1)S2	–	42.9	> 100	37.4	66.7	36.6	> 100	> 100	–	> 100	16.9	27.5	26	18.4	24.3	18.5	> 100	83
